Reference: patent US11970474B2, “Substituted benzodiazoles and use thereof in therapy” (THOMAS HELLEDAYS STIFTELSE FÖR MEDICINSK FORSKNING, priority 2018, dated 2024)

Experiments:
[1] = molecular target: OGG1 (Homo sapiens (Human), UniProt O15527); assay: In vitro OGG1 activity assay; assay type: biochemical; conditions: 800 pM OGG1 enzyme, 2 nM human APEX1, 10 nM 8-oxoA:C substrate
How it was run: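 Read-out is fluorescein fluorescence, with compounds in DMSO added first, then enzyme and substrate. OGG1 excises its substrate base from a quenched fluorophore-labelled duplex, and surplus APEX1 cuts the resulting apurinic site. The duplex then melts and fluorescence rises in proportion to glycosylase activity.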

[2] = test system: MLE12 cells; assay: Cell viability assay in MLE12 cells (resazurin); assay type: cell-based, mouse; conditions: Mus musculus, MLE12, 24 h, TNF-α 20 ng/ml, resazurin added after 24 hours culture
How it was run: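 MLE12 cells (7500 cells/well) were seeded onto 11-point duplicate compound dose-responses, with TNF-α (final 20 ng/ml) added after 1 hour at 37° C. After 24 hours, resazurin was added for 6 hours and resorufin fluorescence read (ex544 nm/em595 nm). EC50 values were calculated by curve fitting.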

[3] = test system: CCL2; assay: Mouse CCL2 assay in MLE12 cells; assay type: cell-based; conditions: Mus musculus, MLE12, 30 h, MLE12 cells; TNF-α 20 ng/ml; supernatant after 30 hours; HTRF; read-out: CCL2 (EC50)
How it was run: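 CCL2 in supernatants was quantified by two-antibody HTRF FRET, read at 620 and 665 nm after overnight RT incubation, with IC50 derived from delta ratios. Cells were SV40-transformed mouse MLE12, treated with duplicate 6-point compound series for 1 h before 30 h TNF-α (20 ng/ml final) stimulation.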

Sequence of OGG1 (O15527 whole entry): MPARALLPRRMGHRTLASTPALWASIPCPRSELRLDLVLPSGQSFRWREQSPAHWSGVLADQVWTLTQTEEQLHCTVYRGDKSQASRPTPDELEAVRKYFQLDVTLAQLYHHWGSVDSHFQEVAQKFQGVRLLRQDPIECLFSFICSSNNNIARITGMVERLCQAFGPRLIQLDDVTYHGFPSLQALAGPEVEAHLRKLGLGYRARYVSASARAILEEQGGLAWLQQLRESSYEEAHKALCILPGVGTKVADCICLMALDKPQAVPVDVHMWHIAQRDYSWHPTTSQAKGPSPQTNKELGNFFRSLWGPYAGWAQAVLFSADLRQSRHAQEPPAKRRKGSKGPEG

SMILES	IC50 [1] [µM]	IC50 [2] [µM]	EC50 [3] [µM]
O=C(Nc1ccc(Br)c(Cl)c1)N1CCC(n2c(=O)[nH]c3c(Br)cccc32)CC1 [Example 49, 4-(4-Bromo-2-oxo-2,3-dihydro-1H-1,3-benzodiazol-1-yl)-N-(4-bromo-3-chlorophenyl)piperidine-1-carboxamide]	0.379	5.4	15.2
COc1cc(NC(=O)[C@H]2CC[C@@H](n3c(=O)[nH]c4c(S)cccc43)CC2)ccc1C [Example 237, Cis-N-(3-methoxy-4-methylphenyl)-4-(2-oxo-4-sulfanyl-2,3-dihydro-1H-1,3-benzodiazol-1-yl)cyclohexane-1-carboxamide]	0.0671	4.54	31.7
COc1cc(NC(=O)[C@H]2CC[C@@H](n3c(=O)[nH]c4c(N(C)CCN)cccc43)CC2)ccc1C [Example 298, Cis-4-{4-[(2-aminoethyl)(methyl)amino]-2-oxo-2,3-dihydro-1H-1,3-benzodiazol-1-yl}-N-(3-methoxy-4-methylphenyl)cyclohexane-1-carboxamide]	0.012	29.2	36.6
